Inhibition data for three compounds are collected here from paper PMC8405091, “Microwave-assisted Phospha-Michael addition reactions in the 13α-oestrone series and in vitro antiproliferative properties” (Journal of Enzyme Inhibition and Medicinal Chemistry, 2021).

Where only a bound is given, the exact number is not on record here.

What all share (assay type): cell-based, human
For one experiment, the system named is UPCI-SCC-131 cells. The experiment in a line: MTT antiproliferative assay, UPCI-SCC-131. Conditions: Homo sapiens, 72 h, read-out: Growth inhibition, % ± SEM, 72 h; for inhibition at 10 µM: UPCI-SCC-131, 10 μM; for inhibition at 30 µM: UPCI-SCC-131, 30 μM. On the procedure:
(§1) The antiproliferative properties of the newly synthesized compounds (9–20) and their starting materials (4 and 5) were determined on a panel of human adherent cancer cell lines. MCF-7, MDA-MB-231 and T47D were isolated from breast cancers differing in biochemical background, while A2780 cells were isolated from ovarian cancer. HeLa and SiHa are cervical cancer cell lines positive for HPV-18 and HPV-16, respectively, while C33-A cervical cancer cells are negative for HPV. Moreover, two oropharyngeal cancer cell lines were also utilized: the HPV-negative UPCI-SCC-131 and HPV-16 positive UPCI-SCC-154. The cancer selectivity of compounds was tested on the non-cancerous mouse embryo fibroblast cell line NIH/3T3. All cell lines were purchased from European Collection of Cell Cultures (ECCAC, Salisbury, UK) exception for SiHa and C33-A (American Tissue Culture Collection, Manassas, VA, USA) and HN-SCC-131 and UPCI-SCC-154 (German Collection of Microorganisms and Cell Cultures GmbH, Braunschweig, Germany). Cells were cultivated in minimal essential medium supplemented with 10% fetal bovine serum, 1% non-essential amino acids and an antibiotic–antimycotic mixture. The medium of oropharyngeal cancer cells additionally contained 2.0 mM L-glutamine. All media and supplements were obtained from Lonza Group Ltd., Basel, Switzerland. Near-confluent cancer cells were seeded onto a 96-well microplate at a density of 5,000 cells/well, except for C33-A which were seeded at 10,000/well. After overnight standing, new medium containing the tested compounds at 10 and 30 µM final concentration was added. After incubation for 72 h at 37 °C in humidified air containing 5% CO2, the living cells were assayed by the addition of 20 μL of 5 mg/ml 3-(4,5-dimethylthiazol-2-yl)-2,5-diphenyltetrazolium bromide (MTT) solution. MTT was converted by intact mitochondrial reductase and precipitated as purple crystals during a 4-h contact period. The medium was next removed and the precipitated formazan crystals were dissolved in 100 μL of DMSO during a 60-min period of shaking at 37 ^оC.
(§2) All in vitro experiments were carried out twice with five parallels. Stock solutions of the tested substances (10 mM) were prepared in DMSO. […] Cisplatin (Ebewe Pharma GmbH, Unterach, Austria) was used as positive control.

A further experiment relates to UPCI-SCC-154 cells. The experiment in a line: MTT antiproliferative assay, UPCI-SCC-154. Particulars: Homo sapiens, 72 h, read-out: Growth inhibition, % ± SEM, 72 h; for inhibition at 10 µM: UPCI-SCC-154, 10 μM; for inhibition at 30 µM: UPCI-SCC-154, 30 μM. The method, then:
as §1, §2
In general terms: Tetrazolium dyes change colour on reduction, which living cells bring about.

Another experiment relates to HeLa cells. In words: MTT antiproliferative assay, HeLa. Particulars: Homo sapiens, 72 h; for inhibition at 10 µM: read-out: Growth inhibition, % ± SEM, 10 μM; for inhibition at 30 µM: read-out: Growth inhibition, % ± SEM, 30 μM. On the procedure: as §1, §2
A further experiment concerns SiHa cells. In words: MTT antiproliferative assay, SiHa. Conditions: Homo sapiens, 72 h; for inhibition at 10 µM: read-out: Growth inhibition, % ± SEM, 10 μM; for inhibition at 30 µM: read-out: Growth inhibition, % ± SEM, 30 μM. The method, then:
as §1, §2

The next experiment relates to C33-A cells. In words: MTT antiproliferative assay, C33-A. Conditions: Homo sapiens, C-33-A, 72 h; for inhibition at 10 µM: read-out: Growth inhibition, % ± SEM, C33-A, 10 μM; for inhibition at 30 µM: read-out: Growth inhibition, % ± SEM, C33-A, 30 μM. The method, then:
as §1, §2

The next experiment relates to A2780 cells. The experiment in a line: MTT antiproliferative assay, A2780. Particulars: Homo sapiens, A2780, 72 h, read-out: Growth inhibition, % ± SEM, 72 h; for inhibition at 10 µM: A2780, 10 μM; for inhibition at 30 µM: A2780, 30 μM. On the procedure: as §1, §2
The subject of another experiment is MCF-7 cells. The experiment in a line: MTT antiproliferative assay, MCF-7. Particulars: Homo sapiens, MCF7, 72 h, read-out: Growth inhibition, % ± SEM, 72 h; for inhibition at 10 µM: MCF-7, 10 μM; for inhibition at 30 µM: MCF-7, 30 μM. The method, then:
as §1, §2

The subject of a further experiment is MDA-MB-231 cells. The experiment in a line: MTT antiproliferative assay, MDA-MB-231. Particulars: Homo sapiens, MDA-MB-231, 72 h, read-out: Growth inhibition; % ± SEM. On the procedure:
as §1, §2

A further experiment has as its system T47D cells. In words: MTT antiproliferative assay, T47D. Particulars: Homo sapiens, 72 h; for inhibition at 10 µM: read-out: Growth inhibition, % ± SEM, 10 μM; for inhibition at 30 µM: read-out: Growth inhibition, % ± SEM, 30 μM. The method, then:
as §1, §2

For `COc1ccc2c(c1)CC[C@@H]1[C@@H]2CC[C@@]2(C)C(=O)[C@@H](CP(=O)(c3ccccc3)c3ccccc3)C[C@@H]12` [Compound 10, [(3-methoxy-17-oxo-13α-oestra-1,3,5(10)-trien-16β-yl)methyl]diphenylphosphine oxide], the inhibition (as a rule, the share of the control response that was lost under treatment) at 10 µM in the experiment on UPCI-SCC-131 cells was 39.8 ± 1.36%; in the experiment with UPCI-SCC-154 cells, less than 20%; in the experiment with HeLa cells it was less than 20%; with SiHa cells, less than 20%; in the experiment with C33-A cells, 22 ± 1.84%; in the experiment on A2780 cells it was less than 20%. Further, the inhibition at 10 µM in the experiment with MCF-7 cells, in the experiment with MDA-MB-231 cells and in the experiment with T47D cells was less than 20% in each case. Besides, the inhibition at 30 µM is 72.9 ± 1.7% in the experiment on UPCI-SCC-131 cells; 24.3 ± 2.84% in the experiment with UPCI-SCC-154 cells; 21.5 ± 2.99% with HeLa cells; less than 20% in the experiment with SiHa cells; 27.2 ± 1.85% in the experiment with C33-A cells; 64.2 ± 2.65% with A2780 cells. The inhibition at 30 µM was 35.9 ± 3.3% in the experiment on MCF-7 cells, less than 20% in the experiment with MDA-MB-231 cells and 61.1 ± 1.06% in the experiment with T47D cells.

Turning to `C[C@@]12CC[C@@H]3c4ccc(OCc5ccccc5)cc4CC[C@H]3[C@@H]1C[C@@H](CP(=O)(c1ccccc1)c1ccccc1)C2=O` [Compound 11, [(3-benzyloxy-17-oxo-13α-oestra-1,3,5(10)-trien-16α-yl)methyl]diphenylphosphine oxide], the inhibition at 10 µM with UPCI-SCC-131 cells is 20.9 ± 1.67%; in the experiment on UPCI-SCC-154 cells, less than 20%; in the experiment with HeLa cells, less than 20%; in the experiment with SiHa cells, less than 20%; with C33-A cells it was less than 20%; in the experiment with A2780 cells, less than 20%. Moreover, the inhibition at 10 µM in the experiment with MCF-7 cells was less than 20%; in the experiment with MDA-MB-231 cells, less than 20%; in the experiment with T47D cells, 24.7 ± 1.7%. The inhibition at 30 µM in the experiment with UPCI-SCC-131 cells was determined as 62.5 ± 1.4%; with UPCI-SCC-154 cells it was 38.6 ± 2.6%; in the experiment on HeLa cells, 23.8 ± 2.11%; with SiHa cells, 30.2 ± 2.99%; in the experiment on C33-A cells it was 40.3 ± 0.95%; in the experiment with A2780 cells, 21.9 ± 2.63%. Besides, the inhibition at 30 µM is 37.1 ± 0.72% with MCF-7 cells, less than 20% in the experiment with MDA-MB-231 cells and 59 ± 1.38% with T47D cells.

With `Cc1ccc(P(=O)(C[C@@H]2C[C@H]3[C@@H]4CCc5cc(OCc6ccccc6)ccc5[C@H]4CC[C@@]3(C)C2=O)c2ccc(C)cc2)cc1` [Compound 15, [(3-benzyloxy-17-oxo-13α-oestra-1,3,5(10)-trien-16α-yl)methyl]di-p-tolylphosphine oxide], the inhibition at 10 µM is 24.6 ± 1.39% in the experiment on UPCI-SCC-131 cells; less than 20% with UPCI-SCC-154 cells; less than 20% with HeLa cells; less than 20% in the experiment on SiHa cells; less than 20% in the experiment on C33-A cells; less than 20% in the experiment with A2780 cells. Moreover, the results for the inhibition at 10 µM in the experiment on MCF-7 cells, with MDA-MB-231 cells and in the experiment with T47D cells were less than 20%, less than 20% and 39.1 ± 2.01%, respectively. For the same compound, the inhibition at 30 µM with UPCI-SCC-131 cells was 60.2 ± 1.32%; with UPCI-SCC-154 cells, 34.7 ± 1.36%; with HeLa cells, 27.4 ± 1.57%; with SiHa cells it was less than 20%; in the experiment on C33-A cells, 26.9 ± 0.84%; with A2780 cells, 49.4 ± 2.06%. Also, the inhibition at 30 µM was less than 20% with MCF-7 cells, less than 20% in the experiment with MDA-MB-231 cells and 58.5 ± 0.8% with T47D cells.
